Measurements reported in US4087613A, “1,3,5- Or 1,3,6-naphthalenetriyltris(sulfonylimino)aryl acids and salts” (American Cyanamid Company, priority 1977, dated 1978).
Structures can show the parent of a compound that is named as a salt.

Tests used:
[1] = test system: late components of human complement (C3-C9); test: Test, Code 035 (C3-C9 inhibitor): lysis of EAC 142 by late components of human complement; assay type: biochemical; design: key: Negative; conditions: serial two-fold dilution assay; higher well number indicates higher activity
Description: (§1) An active inhibitor protects C2 from C1 and C4; (ii) Test, Code 035 (C3-C9 inhibitor) -- This test determines the ability of the late components of human complement (C3-C9) to lyse EAC 142 in the presence of appropriate dilutions of the test compound. An active inhibitor protects EAC 142 from lysis by human C3-C9; (iii) Test, Code 036 (C-Shunt inhibitor) -- In this test human erythrocytes rendered fragile are lysed in autologous serum via the shunt pathway activated by cobra venom factor in the presence of appropriate dilutions of the test compound. Inhibition of the shunt pathway results in failure of lysis; (iv) Forssman Vasculitis Test -- Here, the well known complement dependent lesion, Forssman vasculitis, is produced in guinea pigs by intradermal injection of rabbit anti-Forssman antiserum. The lesion is measured in terms of diameter, edema and hemorrhage and the extent to which a combined index of these is inhibited by prior intraperitoneal injection of the test compound at 200 mg/kg is then reported, unless otherwise stated; (v) Forssman Shock Test -- Lethal shock is produced in guinea pigs by an i.v. injection of anti-Forssman antiserum and the harmonic mean death time of treated guinea pigs is compared with that of simultaneous controls; (vi) Complement Level Reduction Test -- In this test, the above dosed guinea pigs, or others, are bled for serum and the complement level is determined in undiluted serum by the capillary tube method of U.S. Pat. No. 3,876,376 and compared to undosed control guinea pigs; and (vii) Cap 50 Test -- Here, appropriate amounts of the test compound are added to a pool of guinea pig serum in vitro, after which the undiluted serum capillary tube assay referred to above is run. The concentration of compound inhibiting 50% is reported.
(§2) **Activity in wells a serial dilution assay. Higher well number indicates
(§3) higher activity. The serial dilutions are two-fold.

whole complement = test: Complement Level Reduction Test: whole complement in serum of dosed guinea pigs, capillary tube assay; assay type: in vivo; conditions: 200 mg/kg
Description: as §1
With reference to Table I, guinea pigs weighing about 300 g were dosed intravenously (i.v.) or intraperitoneally (i.p.) with 200 mg/kg of the test compound dissolved in saline and adjusted to pH 7-8. […] The serum was tested for whole complement using the capillary tube assay. Percent inhibition was calculated by comparison with simultaneous controls. The results appear in Table I together with results of tests, code 026, 035, 036, Cap 50, % inhibition and Forssman shock.

shunt pathway = test: Test, Code 036 (C-Shunt inhibitor): lysis of human erythrocytes via the shunt pathway activated by cobra venom factor; assay type: biochemical; design: key: Negative; conditions: serial two-fold dilution assay; higher well number indicates higher activity
Description: as §1, §2, §3

activated human C1 = molecular target: T1, activated human C1 (Homo sapiens, UniProt P09871); test: Test, Code 026 (C1 inhibitor): protection of human C2 from activated human C1 and C4; assay type: biochemical; conditions: serial two-fold dilution assay; higher well number indicates higher activity
T1 construct: fluid-phase human C2 substrate in presence of C4
T1 sequence (P09871 16-688): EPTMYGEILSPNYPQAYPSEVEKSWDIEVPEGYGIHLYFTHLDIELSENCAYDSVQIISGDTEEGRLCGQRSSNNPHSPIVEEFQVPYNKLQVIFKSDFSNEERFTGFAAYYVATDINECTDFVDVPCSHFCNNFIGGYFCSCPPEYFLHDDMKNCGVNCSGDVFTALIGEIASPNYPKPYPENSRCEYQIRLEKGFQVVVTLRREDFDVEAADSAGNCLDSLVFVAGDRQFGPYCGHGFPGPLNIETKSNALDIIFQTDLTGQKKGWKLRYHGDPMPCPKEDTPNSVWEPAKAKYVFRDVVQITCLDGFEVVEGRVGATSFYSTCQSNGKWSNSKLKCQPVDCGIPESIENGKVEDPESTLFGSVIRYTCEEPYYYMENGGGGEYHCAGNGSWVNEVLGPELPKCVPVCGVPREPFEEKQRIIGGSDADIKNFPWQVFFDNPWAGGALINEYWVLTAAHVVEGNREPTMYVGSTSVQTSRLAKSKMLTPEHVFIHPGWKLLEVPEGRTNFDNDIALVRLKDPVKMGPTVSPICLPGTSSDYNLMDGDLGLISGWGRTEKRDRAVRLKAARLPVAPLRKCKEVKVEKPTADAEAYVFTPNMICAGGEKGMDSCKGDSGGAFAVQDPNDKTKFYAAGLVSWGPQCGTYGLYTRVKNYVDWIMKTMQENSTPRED
T1 sequence (P00736 18-705 partner): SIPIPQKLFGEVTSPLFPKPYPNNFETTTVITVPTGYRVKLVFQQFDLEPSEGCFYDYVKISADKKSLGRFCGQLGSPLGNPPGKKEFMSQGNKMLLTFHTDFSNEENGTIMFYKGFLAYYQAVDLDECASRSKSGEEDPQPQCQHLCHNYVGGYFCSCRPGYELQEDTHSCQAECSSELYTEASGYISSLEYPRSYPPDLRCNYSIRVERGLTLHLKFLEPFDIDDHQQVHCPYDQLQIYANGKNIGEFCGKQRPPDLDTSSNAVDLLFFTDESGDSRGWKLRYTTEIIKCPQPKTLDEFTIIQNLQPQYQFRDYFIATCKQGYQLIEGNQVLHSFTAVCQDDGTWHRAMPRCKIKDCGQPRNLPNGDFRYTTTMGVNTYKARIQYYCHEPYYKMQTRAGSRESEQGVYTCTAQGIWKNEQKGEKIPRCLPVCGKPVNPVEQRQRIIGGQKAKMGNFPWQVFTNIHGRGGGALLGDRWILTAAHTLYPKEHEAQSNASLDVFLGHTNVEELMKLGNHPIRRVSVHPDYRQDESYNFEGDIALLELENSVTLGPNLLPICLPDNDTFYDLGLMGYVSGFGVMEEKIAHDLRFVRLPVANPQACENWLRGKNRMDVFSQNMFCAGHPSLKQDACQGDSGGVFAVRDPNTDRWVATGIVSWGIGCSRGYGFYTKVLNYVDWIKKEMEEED
T1 sequence (P02745 23-245 partner): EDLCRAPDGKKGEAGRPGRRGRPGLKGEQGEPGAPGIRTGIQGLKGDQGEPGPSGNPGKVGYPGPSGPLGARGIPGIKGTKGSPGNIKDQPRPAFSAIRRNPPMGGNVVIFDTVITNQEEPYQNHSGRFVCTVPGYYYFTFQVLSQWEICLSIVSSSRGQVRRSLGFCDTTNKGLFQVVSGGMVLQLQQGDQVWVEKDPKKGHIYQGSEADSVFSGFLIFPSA
T1 sequence (P02746 28-253 partner): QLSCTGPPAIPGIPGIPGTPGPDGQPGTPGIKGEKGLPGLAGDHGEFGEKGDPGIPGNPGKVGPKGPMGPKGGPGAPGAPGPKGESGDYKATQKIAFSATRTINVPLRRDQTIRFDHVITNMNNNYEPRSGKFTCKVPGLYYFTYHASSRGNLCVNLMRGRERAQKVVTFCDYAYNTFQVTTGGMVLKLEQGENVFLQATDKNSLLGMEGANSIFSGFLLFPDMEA
T1 sequence (P02747 29-245 partner): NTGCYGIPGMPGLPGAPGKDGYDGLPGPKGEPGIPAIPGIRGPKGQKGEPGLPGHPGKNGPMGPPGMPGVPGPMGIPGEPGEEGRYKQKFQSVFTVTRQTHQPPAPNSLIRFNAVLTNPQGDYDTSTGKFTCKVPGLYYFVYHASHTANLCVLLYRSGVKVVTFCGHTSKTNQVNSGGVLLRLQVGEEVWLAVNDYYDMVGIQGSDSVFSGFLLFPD
Description: as §1, §2, §3

[2] = test system: hereditary angioneurotic edema; conditions: The New England Journal of Medicine, 286, 808-812 (1972); cited from earlier work
complement system = conditions: literature report; cited from earlier work

Compound | C-Late 035 Wells [1] | In Vivo Activity (Guinea Pig) % Inhibition, Intraperitoneal, 30 minutes (whole complement) [%] | In Vivo Activity (Guinea Pig) % Inhibition, Intraperitoneal, 60 minutes (whole complement) [%] | In Vivo Activity (Guinea Pig) % Inhibition, Intraperitoneal, 120 minutes (whole complement) [%] | Shunt Inhibition 036 Wells (shunt pathway) | C1 026 Wells (activated human C1) | use in the treatment of hereditary angioneurotic edema [2] | anticomplementary / complement inhibiting effect (complement system)
O=C(O)c1cc(NS(=O)(=O)c2ccc3c(S(=O)(=O)Nc4cc(C(=O)O)cc(C(=O)O)c4)cc(S(=O)(=O)Nc4cc(C(=O)O)cc(C(=O)O)c4)cc3c2)cc(C(=O)O)c1 [5,5',5"-[1,3,6-Naphthalenetriyltris(sulfonyliminol)]triisophthalic acid] | N | -84 | -88 | -96 | +2 wells | +6 wells |  | 
NCCCCCC(=O)O [epsilon-aminocaproic acid] |  |  |  |  |  |  | used with success | 
O=C(O)c1cc(NS(=O)(=O)c2ccc3c(S(=O)(=O)Nc4ccc(O)c(C(=O)O)c4)cc(S(=O)(=O)Nc4ccc(O)c(C(=O)O)c4)cc3c2)ccc1O [3,3',3"-[1,3,6-Naphthalenetriyltris(sulfonylimino)]tris[6-hydroxybenzoic acid]] | N |  |  |  | N | +1 wells |  | 
heparin |  |  |  |  |  |  |  | anticomplementary effect
Nc1ccc2cc(S(=O)(=O)O)cc(O)c2c1N=Nc1ccc(NC(=O)Nc2ccc(N=Nc3c(N)ccc4cc(S(=O)(=O)O)cc(O)c34)c(S(=O)(=O)O)c2)cc1S(=O)(=O)O [chlorazol fast pink, 3,3'-ureylenebis-[6-(2-amino-8-hydroxy-6-sulfo-1-naphthylazo)]benzenesulfonic acid, tetrasodium salt] |  |  |  |  |  |  |  | anticomplementary effect
O=C([O-])c1ccc(NS(=O)(=O)c2ccc3c(S(=O)(=O)Nc4ccc(C(=O)[O-])cc4)cc(S(=O)(=O)Nc4ccc(C(=O)[O-])cc4)cc3c2)cc1.[Na+].[Na+].[Na+] [4,4',4"-[1,3,6-Naphthalenetriyltris(sulfonylimino)]tribenzoic acid trisodium salt] | N |  |  |  | N |  |  | 
NC[C@H]1CC[C@H](C(=O)O)CC1 [tranexamic acid] |  |  |  |  |  |  | used with success | 
8-(3-benzamido-4-methylbenzamido)naphthalene-1,3,5-trisulfonic acid [Suramin] |  |  |  |  |  |  | used with success | competitive inhibitor of the complement system
O=C(O)c1cc(NS(=O)(=O)c2ccc3c(S(=O)(=O)Nc4cc(C(=O)O)c(O)c(C(=O)O)c4)cc(S(=O)(=O)Nc4cc(C(=O)O)c(O)c(C(=O)O)c4)cc3c2)cc(C(=O)O)c1O [5,5',5"-[1,3,6-Naphthalenetriyltris(sulfonylimino)]-tris[2-hydroxyisophthalic acid]] | +1 wells | -69 | -59 | -58 | +4 wells | +5 wells |  | 
O=C([O-])c1cccc(NS(=O)(=O)c2ccc3c(S(=O)(=O)Nc4cccc(C(=O)[O-])c4)cc(S(=O)(=O)Nc4cccc(C(=O)[O-])c4)cc3c2)c1.[Na+].[Na+].[Na+] [3,3',3"-[1,3,6-Naphthalenetriyltris(sulfonylimino)]tribenzoic acid trisodium salt] | N |  |  |  | N | +3 wells |  | 
CN(c1cc(C(=O)O)cc(C(=O)O)c1)S(=O)(=O)c1ccc2c(S(=O)(=O)N(C)c3cc(C(=O)O)cc(C(=O)O)c3)cc(S(=O)(=O)N(C)c3cc(C(=O)O)cc(C(=O)O)c3)cc2c1 [5,5',5"-[1,3,6-Naphthalenetriyltris(sulfonylmethylimino)]triisophthalic acid hexasodium salt] | N |  |  |  | N | +3 wells |  | 
O=C([O-])c1cc(NS(=O)(=O)c2ccc3c(S(=O)(=O)Nc4cc(C(=O)[O-])cc(C(=O)[O-])c4)cc(S(=O)(=O)Nc4cc(C(=O)[O-])cc(C(=O)[O-])c4)cc3c2)cc(C(=O)[O-])c1.[Na+].[Na+].[Na+].[Na+].[Na+].[Na+] [5,5',5"-[1,3,6-Naphthalenetriyltris(sulfonylimino)]triisophthalic acid hexasodium salt] | N | -67 | -79 | -84 |  |  |  | 
O=C([O-])c1cc(NS(=O)(=O)c2ccc3c(S(=O)(=O)Nc4cc(C(=O)[O-])c(C(=O)[O-])c(C(=O)[O-])c4)cc(S(=O)(=O)Nc4cc(C(=O)[O-])c(C(=O)[O-])c(C(=O)[O-])c4)cc3c2)cc(C(=O)[O-])c1C(=O)[O-].[Na+].[Na+].[Na+].[Na+].[Na+].[Na+].[Na+].[Na+].[Na+] [5,5',5"-[1,3,6-Naphthalenetriyltris(sulfonylimino)]tri-1,2,3-benzenetricarboxylic acid nonasodium salt] |  | -63 | -71 | -71 |  | +8 wells |  | 
